Test results reported in patent US8822486B2, “Spiropiperidine compounds” (Eli Lilly and Company, priority 2009, dated 2014).

Legend:
Assay type in all cases: cell-based
[1] = molecular target: T1, human GPR40 (Homo sapiens, UniProt O14842); test: Calcium Flux Primary Assay
T1 construct: expressed in transfected cells; host or cells: HEK293
Procedure: Calcium Flux Primary Assay
HEK293 cells over expressing the human GPR40 cDNA maintained in Dulbecco's modified Eagle's medium with F12 medium in 3:1 ratio supplemented with 10% FBS and 800 μg/ml geneticin at 37° C. and 5% CO2 are employed for the study. Agonist assays are performed using a Calcium 4 Dye assay kit (Molecular Devices) in the presence (0.1%) or absence of fatty acid free BSA in the assay buffer (1×HBSS (Hank's Balanced Salt Solution) & 20 mM HEPES (4-(2-hydroxyethyl)-1-piperazineethanesulfonic acid). Receptor activation is measured as an increase in intracellular calcium using the Fluorometric Imaging Plate Reader (FLIPR). Maximum change in fluorescence over the base line is used to determine agonist response. EC50 (effective concentration at half the maximal response) value of the compound is calculated using Excel Fit software (version 4; IDBS) by plotting concentration vs relative fluorescence units (RFUs).

[2] = test system: mouse insulinoma cell line Min6; test: Glucose Dependent Insulin Secretion (GDIS) assay in Min6 cells; settings: 1 μM plus 25 mM glucose compared to 25 mM glucose alone; 2 h incubation
Procedure: (§1) Because activation of GPR40 is known to result in insulin secretion which is dependent on high glucose concentrations, two separate assay systems (insulinoma cell line and primary rodent islets) are developed to further characterize compounds that are known to increase intracellular calcium in the GPR40 primary assay discussed above.
GDIS assays are performed using the mouse insulinoma cell line Min6. Min6 cells are maintained in Dulbecco's Modified Eagle's Medium (DMEM) containing non-essential amino acids, 10% FBS, […] 2-mercaptoethanol and 1% penicillin and streptomycin at 37° C. plus 5% CO2 On the day of the experiment, the cells are washed twice with 200 μl of pre-warmed Krebs-ringer buffer without glucose. Addition of 200 μL of pre-warmed Krebs-ringer buffer containing 2.5 mM glucose is used to starve the cells followed by the addition of compounds in the presence of a high concentration of glucose (25 mM). The plate is incubated at 37° C. for 2 hours. At the end of the 2 h incubation, the supernatant is gently transferred into a Millipore filter plate and spun at 200 g (gravitational force) for 3 minutes. Insulin is assayed using a Mercodia Insulin estimation kit.

[3] = test system: primary rodent pancreatic islets of Langerhans; test: GDIS assay in primary rodent pancreatic islets; settings: male SD rat islets; different concentrations; compared to 11.2 mM glucose alone; 90 min
Source text: as §1
GDIS assays using primary rodent pancreatic islets of Langerhans are also used to characterize exemplified compounds. Pancreatic islets are isolated from male SD (Sprague Dawley) rats by collagenase digestion and Histopaque density gradient separation. The islets are cultured overnight in RPMI-1640 medium with GlutaMAXn (stabilized, dipeptide form of L-glutamine (Invitrogen catalog #61870-010)) to facilitate recovery from the isolation process. Insulin secretion is determined by a 90 minute incubation in EBSS (Earle's Balances Salt Solution) buffer in a 48-well plate. Briefly, islets are first preincubated in EBSS with 2.8 mM glucose for 30 min and are then transferred to a 48-well plate (four islets/well) containing 150 μl 2.8 mM glucose and incubated with 150 μl of EBSS with 2.8 or 11.2 mM glucose in the presence or absence of test compounds for 90 minutes. The buffer is removed from the wells at the end of the incubation and assayed for insulin levels using the Rat Insulin ELISA kit (Mercodia). […]

[4] = molecular target: T2, Gal4 PPARα (Homo sapiens, UniProt Q07869); test: Gal4 PPARα reporter functional assay in CV1 cells; settings: examined up to 10 μM, luciferase reporter, 24 hours
T2 construct: expressed in transfected cells; host or cells: CV1 (African green monkey kidney)
T2 sequence (Q07869 239-466 limits assumed): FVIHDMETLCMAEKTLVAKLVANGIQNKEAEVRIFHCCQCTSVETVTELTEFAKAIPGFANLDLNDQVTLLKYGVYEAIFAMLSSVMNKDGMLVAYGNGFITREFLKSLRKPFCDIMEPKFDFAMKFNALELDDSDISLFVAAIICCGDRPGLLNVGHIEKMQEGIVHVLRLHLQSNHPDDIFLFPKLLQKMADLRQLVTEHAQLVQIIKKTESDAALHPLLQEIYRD
Source text: Gal4 PPARα, Gal4 PPARδ, and PPARγ reporter functional assays are also used to monitor the selectivity of exemplified compounds. CV1 cells, which are derived from the renal tissue of an African green monkey, are transfected with various receptor and reporter plasmids using Fugene. For the Gal4 PPARα and PPARδ assays, a reporter plasmid containing five tandem copies of the yeast transcription protein Gal4 response element, cloned upstream of a firefly luciferase gene driven by the major late promoter of adenovirus, is transfected together with a Simian Virus 40 (SV40) driven plasmid constitutively expressing a hybrid protein containing the Gal4 DNA binding domain (DBD), and either the PPARα or PPARδ ligand binding. For the PPARγ assay, plasmids encoding PPARγ and RXRα, both driven by a cytomegalovirus (CMV) promoter are transfected together with a plasmid containing luciferase reporter cDNA driven by the TK promoter and a receptor response element (2×PPRE). Cells are transfected in T225 cm^2 cell culture flasks in DMEM media with 5% charcoal-stripped FBS. […] After 24 hours incubation with compounds, cells are lysed and luciferase activity is determined as a measure of receptor activation by luminescence. […] The maximum percent stimulation is determined versus maximum stimulation obtained with 10 μM of an appropriate PPAR agonist reference compound. […]

T1 sequence (O14842 whole entry): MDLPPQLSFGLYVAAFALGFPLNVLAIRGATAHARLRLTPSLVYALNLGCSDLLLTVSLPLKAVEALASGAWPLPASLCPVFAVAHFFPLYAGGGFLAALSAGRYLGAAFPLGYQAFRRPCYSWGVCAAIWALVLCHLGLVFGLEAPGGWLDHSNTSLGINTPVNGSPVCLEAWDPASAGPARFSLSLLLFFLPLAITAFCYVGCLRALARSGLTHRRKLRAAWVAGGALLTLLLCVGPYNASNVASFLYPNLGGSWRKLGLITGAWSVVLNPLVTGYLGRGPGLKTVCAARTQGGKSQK

With `CC#C[C@@H](CC(=O)O)c1ccc(OCc2ccc(CN3CCC4(C=Cc5ccccc54)CC3)s2)cc1` [Example 1, (3S)-3-[4-[[5-(Spiro[indene-1,4′-piperidine]-1′-ylmethyl)-2-thienyl]methoxy]phenyl]hex-4-ynoic acid] the EC50 ([1]; HEK293 cells over expressing human GPR40, intracellular calcium, FLIPR) was 114 nM, the Percent efficacy ([1]; maximal response compared to the natural ligand, linoleic acid) was 91+/−9% and the “increase in insulin secretion” value [2] was “two-fold increase”. For the same compound, the increase in insulin [3] was 2- to 4 fold and the “functional activation of PPARα” value [4] was “No functional activation”.
